Four compounds from patent publication US9486506B2 (Novo Nordisk A/S, priority 2011, dated 2016) can be followed below.

One data set has as its target T1, glucagon receptor (Homo sapiens, UniProt P47871).
T1 construct: expressed in transfected cells
Put plainly: Assay (I) Glucagon activity (cAMP biosensor, FLIPR). The data set is classed as cell-based.

Data set [1] is described as follows: Assay (XI) Pharmacokinetic study in minipigs. The data set is classed as in vivo, Göttingen minipigs. Particulars: i.v. administration, terminal half-life; for half-life: minipig, iv, read-out: iv PK minipig [T½] (converted). How it is done:
Buffer: • 50 mM Dinatriumphosphatdihydrat • 184 mM Propylenglycol • 58 mM Phenol • pH adjusted to 8.15 with H3PO4. In cases where pH was adjusted to 8.15 after re-suspension of analogues, 0.2 M NaOH was used. Assay (XI) Pharmacokinetic Study in Minipigs
This is done in a pharmacokinetic (PK) study, whereamong other parameters the terminal half-life and the clearance of the derivative in question is determined. Increasing the terminal half-life and decreasing the clearance means that the compound of study is eliminated slower from the body.
Male or female Göttingen minipigs were obtained from Ellegaard Göttingen Minipigs (Dalmose, Denmark) approximately 7-14 months of age and weighing from approximately 16-35 kg were used in the studies. The minipigs were housed either individually (pigs with permanent catheters) or in a group and fed restrictedly once or twice daily with SDS minipig diet (Special Diets Services, Essex, UK). In some studies two permanent central venous catheters were implanted in vena cava caudalis or cranialis in each animal after at least 2 weeks of acclimatisation. […] On each dosing occasion these pigs were instrumented with a venflon in one ear vein through which the derivatives were dosed. Blood sampling was done by venipuncture in v. jugularis or v. cava cranialis
The animals were either unfasted or fasted for approximately 18 h before dosing and from 0 to 4 h after dosing, but had ad libitum access to water during the whole period.
Intravenous injections (the volume corresponding to usually 2-3 nmol/kg, for example 0.1 ml/kg) of the compounds were given through one catheter or through the venflon, and blood was sampled at predefined time points for up till 13 days post dosing (preferably through the other catheter or by venipuncture). Blood samples (for example 0.8 ml) were collected in tubes with EDTA buffer (8 mM) (sometimes aprotinin 500 KIU/ml blood was added) and then centrifuged at 4° C. and 1942 G for 10 minutes. […] Based on these measurements, time-plasma concentration profiles for the compound of study are plotted and a so-called non-compartmental pharmacokinetic analysis of the data is performed in WinNonlin v. 5.0 or Phoenix v. 6.2 (Pharsight Inc., Mountain View, Calif., USA) or other relevant software for PK analysis. For most compounds, the terminal part of the plasma-concentration profiles will be linear when drawn in a semi-logarithmic plot, reflecting that after the initial distribution, drug is removed from the body at a constant fractional rate. The rate (lambda Z or is equal to minus the slope of the terminal part of the plot. From this rate, also the terminal half-life may be calculated, as t½=ln(2)/λz (see, e.g., Johan Gabrielsson and Daniel Weiner: Pharmacokinetics and Pharmacodynamic Data Analysis. Concepts & Applications, 3rd Ed., Swedish Pharmaceutical Press, Stockholm (2000)).
Clearance is defined as the dose (D) divided by area under the curve (AUC) on the plasmaconcentration versus time profile (Rowland, M and Tozer T N: Clinical Pharmacokinetics: Concepts and Applications, 3rd edition, 1995 Williams Wilkins)

Data set [2] in a line: Assay (X) Chemical stability assessment by RP-UPLC. It counts as physicochemical. Particulars: pH 8.15, 14 days at 37° C. vs 5° C., 333 μM.

In general, pEC50 refers to −log10 of the EC50, conventionally taken in molar units.

pEC50: −log10 of the molar value. Where two headings read alike, the source gives them in different places. Numbered stars: 1 amine (or outer) side, 2 acyl side, 3 side chain; on linkers, the order of the positions; unused ones are H or OH. Side chains are listed from the residue outwards. Peptide text beside a SMILES is read from it. * marks the point of attachment. C18 diacid = O=C(O)CCCCCCCCCCCCCCCCC(=O)*; C16 diacid = O=C(O)CCCCCCCCCCCCCCC(=O)*; γGlu = O=C(O)[C@H](CCC(=O)[*:2])N[*:1]; C14 diacid = O=C(O)CCCCCCCCCCCCC(=O)*; AEEA = NCCOCCOCC(=O)O

T1 sequence (P47871 26-477): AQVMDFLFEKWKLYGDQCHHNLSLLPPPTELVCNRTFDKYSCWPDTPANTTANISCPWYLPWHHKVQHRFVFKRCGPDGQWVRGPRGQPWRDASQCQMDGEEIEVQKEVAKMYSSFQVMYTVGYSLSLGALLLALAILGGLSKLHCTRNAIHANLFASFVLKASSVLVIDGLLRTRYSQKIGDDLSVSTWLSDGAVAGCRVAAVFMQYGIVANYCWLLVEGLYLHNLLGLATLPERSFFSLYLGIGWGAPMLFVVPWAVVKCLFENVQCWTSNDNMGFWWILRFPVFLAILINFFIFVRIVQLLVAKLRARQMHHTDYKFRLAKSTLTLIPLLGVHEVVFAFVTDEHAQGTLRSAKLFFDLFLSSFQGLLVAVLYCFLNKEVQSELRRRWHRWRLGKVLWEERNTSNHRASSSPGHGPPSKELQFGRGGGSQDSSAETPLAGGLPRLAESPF

For the compound `CC(C)C[C@H](NC(=O)[C@H](CC(=O)O)NC(=O)[C@H](CC(C)C)NC(=O)[C@H](Cc1ccc(O)cc1)NC(=O)[C@H](CCCNC(=N)N)NC(=O)[C@H](CO)NC(=O)[C@H](Cc1ccc(O)cc1)NC(=O)[C@H](CC(=O)O)NC(=O)[C@H](CO)NC(=O)[C@@H](NC(=O)[C@H](Cc1ccccc1)NC(=O)[C@@H](NC(=O)CNC(=O)[C@H](CCC(N)=O)NC(=O)[C@H](CO)NC(=O)[C@@H](N)Cc1c[nH]cn1)[C@@H](C)O)[C@@H](C)O)C(=O)N[C@@H](CCCNC(=N)N)C(=O)N[C@@H](CCCNC(=N)N)C(=O)N[C@@H](C)C(=O)N[C@@H](CCC(N)=O)C(=O)N[C@@H](CC(=O)O)C(=O)N[C@@H](Cc1ccccc1)C(=O)N[C@H](C(=O)N[C@@H](CCCCNC(=O)CC[C@H](NC(=O)CC[C@H](NC(=O)COCCOCCNC(=O)COCCOCCNC(=O)CC[C@H](NC(=O)CCCCCCCCCCCCC(=O)O)C(=O)O)C(=O)O)C(=O)O)C(=O)N[C@@H](Cc1c[nH]c2ccccc12)C(=O)N[C@@H](CC(C)C)C(=O)N[C@@H](CC(C)C)C(=O)N[C@@H](CO)C(=O)N[C@H](C(=O)O)[C@@H](C)O)C(C)C` [Example 24, N^ε24-[(4S)-4-carboxy-4-[[(4S)-4-carboxy-4-[[2-[2-[2-[[2-[2-[2-[[(4S)-4-carboxy-4-(13-carboxytridecanoylamino)butanoyl]amino]ethoxy]ethoxy]acetyl]amino]ethoxy]ethoxy]acetyl]amino]butanoyl]amino]butanoyl]-[Arg^12,Leu^16,Lys^24,Leu^27,Ser^28]-Glucagon] (H-HSQGTFTSDYSRYLDLRRAQDFVK([γGlu-γGlu-AEEA-AEEA-γGlu-C14 diacid])WLLST-OH), on glucagon receptor, the pEC50 was 11.22. In data set [1] (both sexes, Göttingen, plasma), the half-life was 4.1 h.

With `CC(C)C[C@H](NC(=O)[C@H](CC(=O)O)NC(=O)[C@H](CC(C)C)NC(=O)[C@H](Cc1ccc(O)cc1)NC(=O)[C@H](CCCCN)NC(=O)[C@H](CO)NC(=O)[C@H](Cc1ccc(O)cc1)NC(=O)[C@H](CC(=O)O)NC(=O)[C@H](CO)NC(=O)[C@@H](NC(=O)[C@H](Cc1ccccc1)NC(=O)[C@@H](NC(=O)CNC(=O)[C@H](CCC(N)=O)NC(=O)[C@H](CO)NC(=O)[C@@H](N)Cc1c[nH]cn1)[C@@H](C)O)[C@@H](C)O)C(=O)N[C@@H](CCCNC(=N)N)C(=O)N[C@@H](CCCNC(=N)N)C(=O)N[C@@H](C)C(=O)N[C@@H](CCC(N)=O)C(=O)N[C@@H](CC(=O)O)C(=O)N[C@@H](Cc1ccccc1)C(=O)N[C@H](C(=O)N[C@@H](CCCCNC(=O)CC[C@H](NC(=O)CC[C@H](NC(=O)COCCOCCNC(=O)COCCOCCNC(=O)CC[C@H](NC(=O)CCCCCCCCCCCCCCCCC(=O)O)C(=O)O)C(=O)O)C(=O)O)C(=O)N[C@@H](Cc1c[nH]c2ccccc12)C(=O)N[C@@H](CC(C)C)C(=O)N[C@@H](CC(C)C)C(=O)N[C@@H](CO)C(=O)N[C@H](C(=O)O)[C@@H](C)O)C(C)C` [Example 13, N^ε24-[(4S)-4-carboxy-4-[[(4S)-4-carboxy-4-[[2-[2-[2-[[2-[2-[2-[[(4S)-4-carboxy-4-(17-carboxyheptadecanoylamino)butanoyl]amino]ethoxy]ethoxy]acetyl]amino]ethoxy]ethoxy]acetyl]amino]butanoyl]amino]butanoyl]-[Leu^16,Lys^24,Leu^27,Ser^25]-Glucagon] (H-HSQGTFTSDYSKYLDLRRAQDFVK([γGlu-γGlu-AEEA-AEEA-γGlu-C18 diacid])WLLST-OH; N-terminus and C-terminus assumed), the “Chemical stability [Purity loss/14 days 37 C.]” value in data set [2] stood at 5.1%. The half-life in data set [1] (in vivo) is 76.4 h.

Take `CC(C)C[C@H](NC(=O)[C@H](Cc1c[nH]c2ccccc12)NC(=O)[C@H](CCCCNC(=O)CC[C@H](NC(=O)CC[C@H](NC(=O)COCCOCCNC(=O)COCCOCCNC(=O)CC[C@H](NC(=O)CCCCCCCCCCCCCCCCC(=O)O)C(=O)O)C(=O)O)C(=O)O)NC(=O)[C@@H](NC(=O)[C@H](Cc1ccccc1)NC(=O)[C@H](CCC(=O)O)NC(=O)[C@H](CCC(N)=O)NC(=O)[C@H](C)NC(=O)[C@H](CCCNC(=N)N)NC(=O)[C@H](CCCNC(=N)N)NC(=O)[C@@H](NC(=O)[C@H](CC(=O)O)NC(=O)[C@H](CC(C)C)NC(=O)[C@H](Cc1ccc(O)cc1)NC(=O)[C@H](CCCCN)NC(=O)[C@H](CO)NC(=O)[C@@H](NC(=O)[C@H](CC(=O)O)NC(=O)[C@H](CO)NC(=O)[C@@H](NC(=O)[C@H](Cc1ccccc1)NC(=O)[C@@H](NC(=O)CNC(=O)[C@H](CCC(N)=O)NC(=O)[C@H](CO)NC(=O)[C@@H](N)Cc1c[nH]cn1)[C@@H](C)O)[C@@H](C)O)C(C)C)[C@@H](C)O)C(C)C)C(=O)N[C@@H](CC(C)C)C(=O)N[C@@H](CO)C(=O)N[C@H](C(=O)O)[C@@H](C)O` [Example 38, N^ε24-[(4S)-4-carboxy-4-[[(4S)-4-carboxy-4-[[2-[2-[2-[[2-[2-[2-[[(4S)-4-carboxy-4-(17-carboxyheptadecanoylamino)butanoyl]amino]ethoxy]ethoxy]acetyl]amino]ethoxy]ethoxy]acetyl]amino]butanoyl]amino]butanoyl]-[Val10,Thr16,Glu21,Lys24,Leu27,Ser28]-Glucagon] (H-HSQGTFTSDVSKYLDTRRAQEFVK([γGlu-γGlu-AEEA-AEEA-γGlu-C18 diacid])WLLST-OH): in data set [2], the “Chemical stability [Purity loss/14 days 37 C.]” value came out at 4.2%. Further, in data set [1], the “iv PK minipig [T½]” value is 83.0 h.

`CC(C)C[C@H](NC(=O)[C@H](CC(=O)O)NC(=O)[C@H](CC(C)C)NC(=O)[C@H](Cc1ccc(O)cc1)NC(=O)[C@H](CCCNC(=N)N)NC(=O)[C@H](CO)NC(=O)[C@H](Cc1ccc(O)cc1)NC(=O)[C@H](CC(=O)O)NC(=O)[C@H](CO)NC(=O)[C@@H](NC(=O)[C@H](Cc1ccccc1)NC(=O)[C@@H](NC(=O)CNC(=O)[C@H](CCC(N)=O)NC(=O)[C@H](CO)NC(=O)[C@@H](N)Cc1c[nH]cn1)[C@@H](C)O)[C@@H](C)O)C(=O)N[C@@H](CCCNC(=N)N)C(=O)N[C@@H](CCCNC(=N)N)C(=O)N[C@@H](C)C(=O)N[C@@H](CCC(N)=O)C(=O)N[C@@H](CC(=O)O)C(=O)N[C@@H](Cc1ccccc1)C(=O)N[C@H](C(=O)N[C@@H](CCCCNC(=O)CC[C@H](NC(=O)CC[C@H](NC(=O)COCCOCCNC(=O)COCCOCCNC(=O)CC[C@H](NC(=O)CCCCCCCCCCCCCCC(=O)O)C(=O)O)C(=O)O)C(=O)O)C(=O)N[C@@H](Cc1c[nH]c2ccccc12)C(=O)N[C@@H](CC(C)C)C(=O)N[C@@H](CC(C)C)C(=O)N[C@@H](CO)C(=O)N[C@H](C(=O)O)[C@@H](C)O)C(C)C` [Example 25, N^ε24-[(4S)-4-carboxy-4-[[(4S)-4-carboxy-4-[[2-[2-[2-[[2-[2-[2-[[(4S)-4-carboxy-4-(15-carboxypentadecanoylamino)butanoyl]amino]ethoxy]ethoxy]acetyl]amino]ethoxy]ethoxy]acetyl]amino]butanoyl]amino]butanoyl]-[Arg^12,Leu^16,Lys^24,Leu^27,Ser^28]-Glucagon] (H-HSQGTFTSDYSRYLDLRRAQDFVK([γGlu-γGlu-AEEA-AEEA-γGlu-C16 diacid])WLLST-OH) had a pEC50 on glucagon receptor of 10.17. In addition, the half-life in data set [1] (both sexes, Göttingen, plasma) is 59.6 h.
